# Measured values published in ChEMBL document CHEMBL5465560, “Selectivity Literature for EUbOPEN Chemogenomic Library” (2024).
# Experiments:
# [1] = biological target: T1, Histone-arginine methyltransferase CARM1 (Homo sapiens) (UniProt Q86X55); settings: KMS-11, at 3 µM
# T1 sequence (whole entry): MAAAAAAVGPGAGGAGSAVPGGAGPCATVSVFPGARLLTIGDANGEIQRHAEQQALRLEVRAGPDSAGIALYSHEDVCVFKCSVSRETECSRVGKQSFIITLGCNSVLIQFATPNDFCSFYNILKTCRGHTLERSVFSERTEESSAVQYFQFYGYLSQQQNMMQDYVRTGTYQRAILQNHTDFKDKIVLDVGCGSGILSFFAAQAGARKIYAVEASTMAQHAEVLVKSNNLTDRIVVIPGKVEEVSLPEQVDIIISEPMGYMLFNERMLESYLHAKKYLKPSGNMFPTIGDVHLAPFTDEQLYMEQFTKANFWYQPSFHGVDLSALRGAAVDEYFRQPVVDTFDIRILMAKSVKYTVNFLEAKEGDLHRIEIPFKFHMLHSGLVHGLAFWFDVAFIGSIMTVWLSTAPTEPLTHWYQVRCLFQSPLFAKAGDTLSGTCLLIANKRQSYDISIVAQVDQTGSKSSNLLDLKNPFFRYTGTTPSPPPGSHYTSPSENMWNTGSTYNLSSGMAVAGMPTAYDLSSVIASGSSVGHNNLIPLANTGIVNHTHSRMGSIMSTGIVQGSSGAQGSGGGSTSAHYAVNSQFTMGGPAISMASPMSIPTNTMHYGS
# [2] = biological target: T2, Serine/threonine-protein kinase RIO3 (Homo sapiens) (UniProt O14730); assay: Selectivity interaction (KinomeScan (DiscoverX)) EUB0001868a RIOK3; settings: at 1 µM
# T2 sequence (whole entry): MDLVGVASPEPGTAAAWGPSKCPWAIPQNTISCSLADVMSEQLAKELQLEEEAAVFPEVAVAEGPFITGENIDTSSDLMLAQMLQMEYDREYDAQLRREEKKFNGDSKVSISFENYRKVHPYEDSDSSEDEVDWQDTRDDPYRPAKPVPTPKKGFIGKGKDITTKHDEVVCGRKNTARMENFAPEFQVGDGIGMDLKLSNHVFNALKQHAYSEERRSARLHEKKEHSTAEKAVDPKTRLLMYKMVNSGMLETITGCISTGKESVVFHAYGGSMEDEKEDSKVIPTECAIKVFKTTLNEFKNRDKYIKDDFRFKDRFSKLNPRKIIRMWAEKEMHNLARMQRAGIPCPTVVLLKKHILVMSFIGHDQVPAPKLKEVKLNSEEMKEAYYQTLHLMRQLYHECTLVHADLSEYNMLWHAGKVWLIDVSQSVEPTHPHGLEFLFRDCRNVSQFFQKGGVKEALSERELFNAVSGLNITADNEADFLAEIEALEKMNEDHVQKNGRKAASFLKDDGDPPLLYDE
# [3] = biological target: Mitogen-activated protein kinase kinase kinase 11 (Homo sapiens) (UniProt Q16584); assay: Selectivity interaction (ActivX KiNativ screen (ex vivo kinase selectivity in human PBMCs)) EUB0001619a MAP3K11; format: cell-based; settings: PBMC, at 1 µM
# Sequence of Mitogen-activated protein kinase kinase kinase 11 (Homo sapiens) (Q16584 whole entry, looked up): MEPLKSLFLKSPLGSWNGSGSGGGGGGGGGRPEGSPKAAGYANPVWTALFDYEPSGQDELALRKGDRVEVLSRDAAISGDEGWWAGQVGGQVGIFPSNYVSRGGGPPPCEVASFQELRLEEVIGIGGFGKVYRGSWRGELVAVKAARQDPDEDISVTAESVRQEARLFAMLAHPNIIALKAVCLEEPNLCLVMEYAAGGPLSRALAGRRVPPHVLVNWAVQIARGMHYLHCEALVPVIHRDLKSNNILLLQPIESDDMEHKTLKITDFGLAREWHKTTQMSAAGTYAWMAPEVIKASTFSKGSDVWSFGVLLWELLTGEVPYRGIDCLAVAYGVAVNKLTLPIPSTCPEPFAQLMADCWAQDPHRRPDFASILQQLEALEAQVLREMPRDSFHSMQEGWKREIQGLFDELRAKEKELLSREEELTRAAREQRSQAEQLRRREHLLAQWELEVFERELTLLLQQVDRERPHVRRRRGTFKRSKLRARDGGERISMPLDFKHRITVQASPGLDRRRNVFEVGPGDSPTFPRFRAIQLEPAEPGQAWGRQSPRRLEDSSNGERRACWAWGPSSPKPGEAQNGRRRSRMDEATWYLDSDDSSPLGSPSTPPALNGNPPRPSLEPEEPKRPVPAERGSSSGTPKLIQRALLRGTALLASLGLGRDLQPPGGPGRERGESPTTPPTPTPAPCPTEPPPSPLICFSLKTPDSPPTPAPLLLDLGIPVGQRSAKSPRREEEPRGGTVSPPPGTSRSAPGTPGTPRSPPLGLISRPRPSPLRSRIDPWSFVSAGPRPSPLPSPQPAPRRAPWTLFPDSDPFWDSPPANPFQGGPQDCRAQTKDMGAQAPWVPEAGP
# [4] = biological target: T3, Histone-lysine N-methyltransferase SUV39H1 (Homo sapiens) (UniProt O43463); assay: Selectivity interaction (Methyltransferase screen (Scintillation proximity assays)) EUB0000255b SUV39H1
# T3 sequence (whole entry): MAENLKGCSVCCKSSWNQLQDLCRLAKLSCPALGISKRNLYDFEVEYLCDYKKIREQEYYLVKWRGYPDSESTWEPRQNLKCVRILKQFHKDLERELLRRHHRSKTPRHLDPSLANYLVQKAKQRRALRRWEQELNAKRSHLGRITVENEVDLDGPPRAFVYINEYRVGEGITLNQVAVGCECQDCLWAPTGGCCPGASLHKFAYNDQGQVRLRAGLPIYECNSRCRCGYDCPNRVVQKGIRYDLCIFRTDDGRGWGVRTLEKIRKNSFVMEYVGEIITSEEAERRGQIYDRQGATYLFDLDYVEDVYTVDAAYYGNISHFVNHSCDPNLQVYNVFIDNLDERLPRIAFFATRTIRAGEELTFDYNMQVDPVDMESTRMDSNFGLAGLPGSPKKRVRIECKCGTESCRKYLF
# [5] = biological target: T4, Tyrosine-protein kinase receptor TYRO3 (Homo sapiens) (UniProt Q06418); assay: Selectivity interaction (SelectScreen profiling (Invitrogen)) EUB0000607a TYRO3; settings: at 2 µM
# T4 sequence (whole entry): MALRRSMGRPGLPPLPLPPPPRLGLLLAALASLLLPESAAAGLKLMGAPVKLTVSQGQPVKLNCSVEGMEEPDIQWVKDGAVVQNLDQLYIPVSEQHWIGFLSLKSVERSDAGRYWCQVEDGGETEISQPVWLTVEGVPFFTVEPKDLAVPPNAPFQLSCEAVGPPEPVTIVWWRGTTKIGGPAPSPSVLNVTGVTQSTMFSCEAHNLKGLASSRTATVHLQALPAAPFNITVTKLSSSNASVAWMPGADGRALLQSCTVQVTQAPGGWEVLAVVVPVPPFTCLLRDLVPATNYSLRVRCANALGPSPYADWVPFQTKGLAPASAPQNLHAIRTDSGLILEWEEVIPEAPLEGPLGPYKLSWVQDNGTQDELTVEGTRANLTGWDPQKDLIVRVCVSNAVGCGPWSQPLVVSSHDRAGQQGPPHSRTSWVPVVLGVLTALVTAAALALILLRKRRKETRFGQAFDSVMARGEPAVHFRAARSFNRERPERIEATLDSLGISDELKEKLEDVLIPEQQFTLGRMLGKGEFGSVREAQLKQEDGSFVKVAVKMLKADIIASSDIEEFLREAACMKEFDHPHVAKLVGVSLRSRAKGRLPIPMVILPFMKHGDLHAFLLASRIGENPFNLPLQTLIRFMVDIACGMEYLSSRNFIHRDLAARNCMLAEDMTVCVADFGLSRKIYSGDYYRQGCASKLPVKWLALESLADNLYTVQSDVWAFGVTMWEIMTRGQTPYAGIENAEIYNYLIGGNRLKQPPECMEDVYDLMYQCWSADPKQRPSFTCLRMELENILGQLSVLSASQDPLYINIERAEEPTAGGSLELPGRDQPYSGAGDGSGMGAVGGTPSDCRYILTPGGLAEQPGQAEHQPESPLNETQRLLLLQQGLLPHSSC
# [6] = biological target: Tyrosine-protein kinase Yes (Homo sapiens) (UniProt P07947); assay: Selectivity interaction (SelectScreen profiling (Invitrogen)) EUB0000607a YES1; settings: at 2 µM
# Sequence of Tyrosine-protein kinase Yes (Homo sapiens) (P07947 2-543 limits assumed): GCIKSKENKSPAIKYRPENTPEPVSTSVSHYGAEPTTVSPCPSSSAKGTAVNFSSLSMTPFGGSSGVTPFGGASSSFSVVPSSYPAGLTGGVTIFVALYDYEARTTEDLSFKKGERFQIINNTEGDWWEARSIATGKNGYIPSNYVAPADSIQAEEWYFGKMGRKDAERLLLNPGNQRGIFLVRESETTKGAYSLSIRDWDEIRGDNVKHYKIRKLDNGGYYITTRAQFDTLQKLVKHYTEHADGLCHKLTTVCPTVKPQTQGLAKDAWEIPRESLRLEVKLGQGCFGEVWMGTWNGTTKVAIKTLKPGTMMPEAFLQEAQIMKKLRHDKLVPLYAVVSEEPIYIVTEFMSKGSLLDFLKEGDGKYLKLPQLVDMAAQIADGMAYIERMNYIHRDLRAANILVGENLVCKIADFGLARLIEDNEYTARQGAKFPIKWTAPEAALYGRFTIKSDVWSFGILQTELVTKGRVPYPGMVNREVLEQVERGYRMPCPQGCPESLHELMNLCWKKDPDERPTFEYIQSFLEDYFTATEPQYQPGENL
# [7] = biological target: Calcium/calmodulin-dependent protein kinase type II subunit gamma (Homo sapiens) (UniProt Q13555); assay: Selectivity interaction (KinomeScan (DiscoverX)) EUB0000618a CAMK2G; settings: at 10 µM
# Sequence of Calcium/calmodulin-dependent protein kinase type II subunit gamma (Homo sapiens) (Q13555 whole entry): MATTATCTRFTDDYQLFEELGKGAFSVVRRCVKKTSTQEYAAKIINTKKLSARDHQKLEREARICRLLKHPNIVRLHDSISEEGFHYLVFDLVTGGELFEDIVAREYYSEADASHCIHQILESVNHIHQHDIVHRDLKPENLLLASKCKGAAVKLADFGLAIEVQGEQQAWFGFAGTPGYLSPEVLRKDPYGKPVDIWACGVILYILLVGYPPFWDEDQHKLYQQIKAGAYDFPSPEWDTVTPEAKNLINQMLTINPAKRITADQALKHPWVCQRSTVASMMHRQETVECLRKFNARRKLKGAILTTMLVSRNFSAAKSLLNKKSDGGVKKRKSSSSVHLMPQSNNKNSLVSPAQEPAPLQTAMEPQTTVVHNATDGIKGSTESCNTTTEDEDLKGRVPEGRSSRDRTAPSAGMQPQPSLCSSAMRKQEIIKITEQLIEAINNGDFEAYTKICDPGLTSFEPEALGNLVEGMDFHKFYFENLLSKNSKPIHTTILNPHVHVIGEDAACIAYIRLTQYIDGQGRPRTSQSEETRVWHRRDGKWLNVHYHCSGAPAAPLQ
# [8] = biological target: Ribosomal protein S6 kinase alpha-6 (Homo sapiens, UniProt Q9UK32); assay: Selectivity interaction (KinomeScan (DiscoverX)) EUB0000655a RPS6KA6; settings: at 10 µM
# Sequence of Ribosomal protein S6 kinase alpha-6 (Q9UK32 whole entry): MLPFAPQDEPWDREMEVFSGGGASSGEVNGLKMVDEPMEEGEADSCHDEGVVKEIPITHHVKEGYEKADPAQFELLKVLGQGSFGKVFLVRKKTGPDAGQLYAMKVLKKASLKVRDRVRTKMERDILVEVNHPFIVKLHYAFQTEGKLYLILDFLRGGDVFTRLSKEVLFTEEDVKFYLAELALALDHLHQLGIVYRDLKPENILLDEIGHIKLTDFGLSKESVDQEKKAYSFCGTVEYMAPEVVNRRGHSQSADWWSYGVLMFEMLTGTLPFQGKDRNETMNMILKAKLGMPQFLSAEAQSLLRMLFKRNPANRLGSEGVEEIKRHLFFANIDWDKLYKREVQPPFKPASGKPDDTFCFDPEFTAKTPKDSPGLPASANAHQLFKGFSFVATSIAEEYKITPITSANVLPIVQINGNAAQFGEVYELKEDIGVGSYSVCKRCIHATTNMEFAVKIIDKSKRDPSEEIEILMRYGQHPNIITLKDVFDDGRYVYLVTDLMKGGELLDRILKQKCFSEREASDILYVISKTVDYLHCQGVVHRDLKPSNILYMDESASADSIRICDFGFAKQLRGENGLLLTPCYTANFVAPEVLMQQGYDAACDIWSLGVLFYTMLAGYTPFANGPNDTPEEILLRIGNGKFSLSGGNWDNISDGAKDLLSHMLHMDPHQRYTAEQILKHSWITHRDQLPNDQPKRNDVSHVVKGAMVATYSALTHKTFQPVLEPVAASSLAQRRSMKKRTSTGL
# [9] = biological target: Mitogen-activated protein kinase kinase kinase 9 (Homo sapiens) (UniProt P80192); assay: Selectivity interaction (KinomeScan (DiscoverX)) EUB0000092b MAP3K9; settings: at 10 µM
# Sequence of Mitogen-activated protein kinase kinase kinase 9 (Homo sapiens) (P80192 whole entry, looked up): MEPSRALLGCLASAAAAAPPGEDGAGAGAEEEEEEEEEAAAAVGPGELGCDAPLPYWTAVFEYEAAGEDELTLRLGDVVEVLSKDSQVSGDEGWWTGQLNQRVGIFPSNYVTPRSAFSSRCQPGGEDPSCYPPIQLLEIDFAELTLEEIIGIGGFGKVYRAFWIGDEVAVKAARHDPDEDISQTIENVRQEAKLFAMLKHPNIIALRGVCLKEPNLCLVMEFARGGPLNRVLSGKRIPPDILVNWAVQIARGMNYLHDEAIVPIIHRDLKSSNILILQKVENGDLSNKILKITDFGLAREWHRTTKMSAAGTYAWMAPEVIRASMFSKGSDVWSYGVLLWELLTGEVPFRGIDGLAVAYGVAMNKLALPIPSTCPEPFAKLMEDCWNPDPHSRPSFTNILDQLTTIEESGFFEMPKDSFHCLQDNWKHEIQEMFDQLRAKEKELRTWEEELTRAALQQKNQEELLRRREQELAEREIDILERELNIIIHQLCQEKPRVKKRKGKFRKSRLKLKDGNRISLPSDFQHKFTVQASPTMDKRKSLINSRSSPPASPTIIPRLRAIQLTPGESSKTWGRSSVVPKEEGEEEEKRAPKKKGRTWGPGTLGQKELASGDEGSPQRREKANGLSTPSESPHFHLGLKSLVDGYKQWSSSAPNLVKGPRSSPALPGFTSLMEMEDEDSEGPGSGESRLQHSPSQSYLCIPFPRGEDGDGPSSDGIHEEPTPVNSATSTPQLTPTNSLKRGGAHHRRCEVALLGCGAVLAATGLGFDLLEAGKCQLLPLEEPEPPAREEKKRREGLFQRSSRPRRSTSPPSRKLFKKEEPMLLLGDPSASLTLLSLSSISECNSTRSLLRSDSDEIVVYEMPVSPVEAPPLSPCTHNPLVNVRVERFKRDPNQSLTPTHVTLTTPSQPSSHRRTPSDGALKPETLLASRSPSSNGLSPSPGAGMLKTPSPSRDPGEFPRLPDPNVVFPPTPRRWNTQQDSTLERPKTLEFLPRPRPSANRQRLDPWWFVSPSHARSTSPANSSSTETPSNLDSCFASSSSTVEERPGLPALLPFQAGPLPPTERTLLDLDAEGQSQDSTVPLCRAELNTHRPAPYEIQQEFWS
structure (smiles),measurement,setting,value
CNCCN1CCC(c2cc(CN(C)C(=O)c3cccc(Oc4ccccc4)c3)ccn2)CC1,% of growth rate,[1],-17.2%
Cc1cc(-c2ccnc(Nc3cnn(C)c3)n2)ccc1CNC(=O)N1CC(OC(C)C)C1,% of control,[2],19%
N#Cc1cccc(-c2c[nH]c3ncnc(N4CCOCC4)c23)c1,% of inhibition,[3],20%
COCCN1CCC(c2cc(CN(C)C(=O)c3cccc(Oc4ccccc4)c3)ccn2)CC1,% activity,[4]; at 1 µM,> 95%
same,% activity,[4]; at 10 µM,> 90%
CNC(=O)Nc1ccc(-c2nc(N3CC4CCC(C3)O4)c3cnn(C4CCC5(CC4)OCCO5)c3n2)cc1,% of inhibition,[5],9%
same,% of inhibition,[6],2%
O[C@H]1CC[C@H](Nc2ncc3nc(Nc4c(F)cc(F)cc4F)n([C@H]4CCOC4)c3n2)CC1,% of control,[7],100%
CN(C)CCOc1ccc(-c2nc(-c3ccncc3)c(-c3ccc4c(c3)CC/C4=N\O)[nH]2)cc1,% of control,[8],88%
CCC(=O)N1CCN(c2ccc(-n3c(=O)ccc4cnc5ccc(-c6cnc7ccccc7c6)cc5c43)cc2C(F)(F)F)CC1,% of control,[9],84%
